The values that follow come from US10537565B2, “Solid forms of N-[2,4-bis(1,1-dimethylethyl)-5-hydroxyphenyl]-1,4-dihydro-4-oxoquinoline-3-carboxamide” (Vertex Pharmaceuticals Incorporated, priority 2005, dated 2020).

Converted amounts (≈) assume the structure as drawn.

A short description of data set [1]: Bioavailability (PK) of solid state forms of Compound 1 in rat, oral dosing compared to IV solution. The note with it: in vivo. Here is the method: Bioavailability of crystalline Form B, 85% amorphous Compound 1 and HPMCAS solid dispersion of Compound 1 were evaluated in rat, the results of which are provided in Table 4 below. These forms of the compound were dosed in an oral suspension with a vehicle containing 0.5% methyl cellulose/0.5% SLS/99% water. Bioavailability of various solid forms was evaluated as compared to a multicomponent IV solution of Compound 1. Bioavailability of crystalline […] was 3-6%, compared to 61-95% for amorphous material and 109-111% for solid dispersion.

Another data set can be described thus: Solubility in FaSSIF. Type of data set: physicochemical.

Regarding `CC(C)(C)c1cc(C(C)(C)C)c(NC(=O)c2c[nH]c3ccccc3c2=O)cc1O` [85% Amorphous, N-[2,4-bis(1,1-dimethylethyl)-5-hydroxyphenyl]-1,4-dihydro-4-oxoquinoline-3-carboxamide], in data set [1] (po), the bioavailability is on record as 61-95%. Also, in data set [1] (po, 50 mg/kg), the “% F” value was determined as 95.0%, the AUC came to 135.5 µg·h/mL and the Tmax came out at 6.0 h. Besides, in data set [1] (po, 200 mg/kg), the “% F” value was 61.0%, the AUC was found to be 371.9 µg·h/mL and the time of peak concentration (Tmax) turned out to be 6.0 h. Further, in “Solubility in FaSSIF” (listed as 85% amorphous material), the solubility came to 67.4 µg/mL (≈ 172 µM).

Turning to `CC(C)(C)c1cc(C(C)(C)C)c(NC(=O)c2c[nH]c3ccccc3c2=O)cc1O` [Crystalline, N-[2,4-bis(1,1-dimethylethyl)-5-hydroxyphenyl]-1,4-dihydro-4-oxoquinoline-3-carboxamide], the bioavailability came to 74% in data set [1] (50 mg/kg, % F) and 67% in data set [1] (200 mg/kg, % F). In addition, the “% F” value in data set [1] (po, 50 mg/kg) is reported as 5.5%; in data set [1] (po, 200 mg/kg) it was 3.1%. For the same molecule, the time of peak concentration (Tmax) in data set [1] (po, 50 mg/kg) amounted to 4.0 h; in data set [1] (po, 50 mg/kg, Tmax) it was 5.5 h. The solubility in the data set “Solubility in FaSSIF” (listed as crystalline polymorph B) worked out at 1.0 µg/mL (≈ 2.55 µM).

A word on the bioavailability: it is dose-corrected exposure relative to a reference, in per cent. A low value points to poor availability. One may read the AUC as concentration integrated over time. Read a low AUC as low exposure. For orientation: Tmax means the time from dosing to the highest level. By solubility is commonly meant the concentration that dissolves in the medium under given conditions. A high value points to much dissolved substance.
